Earlier results on 21 compounds are cited in PMC10817174, “Integrated drug response prediction models pinpoint repurposed drugs with effectiveness against rhabdomyosarcoma” (PLOS ONE, 2024).

One data set relates to GDSC-RD cell line. The note with it: Table S2, published drug response ref Iorio et al. (2016); cited from earlier work.
The next data set deals with GDSC-SJCRH30 cell line. The note with it: Table S2, published drug response ref Iorio et al. (2016); cited from earlier work.

Molecules are shown by their SMILES.

For `CN(C)C/C=C/C(=O)Nc1ccc(C(=O)Nc2cccc(Nc3ncc(Cl)c(-c4c[nH]c5ccccc45)n3)c2)cc1` [THZ-2-102-1], the Iorio_RD entry in the data set on GDSC-RD cell line is on record as “R”. The Iorio_SJCRH30 result in the data set with GDSC-SJCRH30 cell line is given as “R”.

Turning to `NC(=O)Nc1sc(-c2ccc(F)cc2)cc1C(N)=O` [TPCA-1], the Iorio_RD entry with GDSC-RD cell line was “R”. Moreover, in the data set on GDSC-SJCRH30 cell line, the Iorio_SJCRH30 result is “R”.

In the case of `CC(C)c1ccccc1Cc1cc(C(=O)Nc2ccc(S(=O)(=O)c3ccccc3C(C)(C)C)cc2)c(O)c(O)c1O` [TW-37], in the data set on GDSC-RD cell line, the Iorio_RD entry is reported as “R”. Further, the Iorio_SJCRH30 entry in the data set on GDSC-SJCRH30 cell line is reported as “R”.

Consider `CC/C(=C(\c1ccccc1)c1ccc(OCCN(C)C)cc1)c1ccccc1` [Tamoxifen], for which the Iorio_RD entry with GDSC-RD cell line is on record as “R”. In the data set with GDSC-SJCRH30 cell line, the Iorio_SJCRH30 result is on record as “R”.

For the compound `Cn1nnc2c(C(N)=O)ncn2c1=O` [Temozolomide], the Iorio_RD result in the data set with GDSC-RD cell line is “R”. Further, the Iorio_SJCRH30 entry with GDSC-SJCRH30 cell line is listed as “R”.

Regarding `C/C=C(/C)C(=O)O[C@H]1C(C)=C2[C@H]([C@@H]1OC(=O)CCCCCCC)[C@@](C)(OC(C)=O)C[C@H](OC(=O)CCC)[C@@]1(O)[C@H]2OC(=O)[C@@]1(C)O` [Thapsigargin], the Iorio_RD entry in the data set on GDSC-RD cell line was “R”. For the same compound, the Iorio_SJCRH30 result in the data set on GDSC-SJCRH30 cell line is listed as “R”.

Regarding `Cn1cncc1[C@@](N)(c1ccc(Cl)cc1)c1ccc2c(c1)c(-c1cccc(Cl)c1)cc(=O)n2C` [Tipifarnib], the Iorio_RD entry in the data set with GDSC-RD cell line was “R”. In addition, the Iorio_SJCRH30 entry with GDSC-SJCRH30 cell line is “R”.

Consider `CC(=O)Nc1cccc(-n2c(=O)n(C3CC3)c(=O)c3c(Nc4ccc(I)cc4F)n(C)c(=O)c(C)c32)c1` [Trametinib], for which, in the data set with GDSC-RD cell line, the Iorio_RD entry is listed as “S”. In addition, the Iorio_SJCRH30 result in the data set with GDSC-SJCRH30 cell line was “R”.

Regarding `CN1CCc2c(c3ccccc3n2Cc2ccc(C(=O)NO)cc2)C1` [Tubastatin-A], the Iorio_RD entry in the data set on GDSC-RD cell line is “S”. In addition, the Iorio_SJCRH30 entry with GDSC-SJCRH30 cell line is “R”.

Regarding `O=C(c1ccc(C(=O)N2CCC(N3CCCC3)CC2)c(Nc2ccccc2)c1)N1CCC(N2CCCC2)CC1` [UNC1215], the Iorio_RD entry in the data set on GDSC-RD cell line is reported as “R”. In the data set on GDSC-SJCRH30 cell line, the Iorio_SJCRH30 entry is “S”.

With `CCCC(=O)OCc1ccc(OC(=O)/C=C(C)/C=C/C=C(C)/C=C/C2=C(C)CCCC2(C)C)cc1` [VNLG-124], the Iorio_RD result with GDSC-RD cell line was “R”. Besides, the Iorio_SJCRH30 result with GDSC-SJCRH30 cell line was “R”.

Take `CCC1=C[C@@H]2CN(C1)Cc1c([nH]c3ccccc13)[C@@](C(=O)OC)(c1cc3c(cc1OC)N(C)[C@H]1[C@@](O)(C(=O)OC)[C@H](OC(C)=O)[C@]4(CC)C=CCN5CC[C@]31[C@@H]54)C2` [Vinorelbine]: in the data set with GDSC-RD cell line, the Iorio_RD result is on record as “R”. Also, in the data set on GDSC-SJCRH30 cell line, the Iorio_SJCRH30 result was “R”.

Consider `Oc1nc(-c2ccc(C(F)(F)F)cc2)nc2c1CSCC2` [XAV-939], for which the Iorio_RD entry in the data set on GDSC-RD cell line was “R”. In addition, the Iorio_SJCRH30 entry in the data set with GDSC-SJCRH30 cell line is “R”.

For the compound `COc1cc2nccc(Oc3ccc(NC(=O)C4(C(=O)Nc5ccc(F)cc5)CC4)cc3)c2cc1OC` [XL-184], the Iorio_RD result in the data set on GDSC-RD cell line is listed as “R”. Also, the Iorio_SJCRH30 result with GDSC-SJCRH30 cell line was “R”.

In the case of `COc1cc2c(Oc3ccc(NC(=O)C4(C(=O)Nc5ccc(F)cc5)CC4)cc3F)ccnc2cc1OCCCN1CCOCC1` [XL-880], in the data set on GDSC-RD cell line, the Iorio_RD result is on record as “R”. In addition, the Iorio_SJCRH30 entry in the data set with GDSC-SJCRH30 cell line is listed as “R”.

Regarding `COc1cc(N2CCN(C)CC2)ccc1Nc1nc(N)c(C(=O)c2c(Cl)cccc2Cl)s1` [XMD14-99], the Iorio_RD result in the data set on GDSC-RD cell line is reported as “R”. In the data set with GDSC-SJCRH30 cell line, the Iorio_SJCRH30 result is recorded as “R”.

`C[C@@H](N)c1ccc(C(=O)Nc2ccnc3[nH]ccc23)cc1` [Y-39983]: the Iorio_RD result in the data set with GDSC-RD cell line was “R”. For the same compound, in the data set with GDSC-SJCRH30 cell line, the Iorio_SJCRH30 result is reported as “R”.

Consider `COc1ccc(C(=O)CC2(O)C(=O)Nc3c(Cl)ccc(Cl)c32)cc1` (stereo not drawn) [YK-4-279], for which the Iorio_RD result in the data set with GDSC-RD cell line was “R”. Besides, the Iorio_SJCRH30 result in the data set with GDSC-SJCRH30 cell line is on record as “R”.

For the compound `COCCn1c2c([n+](Cc3cnccn3)c1C)C(=O)c1ccccc1C2=O` [YM155], the Iorio_RD entry with GDSC-RD cell line is recorded as “R”. Further, the Iorio_SJCRH30 entry with GDSC-SJCRH30 cell line is “R”.

As to `Nc1ccc(C(=O)Nc2cccc(-c3nc(N4CCOCC4)c4oc5ncccc5c4n3)c2)cn1` [YM201636], in the data set on GDSC-RD cell line, the Iorio_RD entry is on record as “R”. Moreover, in the data set on GDSC-SJCRH30 cell line, the Iorio_SJCRH30 entry was “R”.

Consider `FC(F)c1nc2ccccc2n1-c1nc(N2CCOCC2)nc(N2CCOCC2)n1` [ZSTK474], for which the Iorio_RD result with GDSC-RD cell line is “R”. The Iorio_SJCRH30 entry in the data set with GDSC-SJCRH30 cell line is “R”.
